Data taken from ChEMBL document CHEMBL3272151, “Quantitative structure-activity relationship of chymotrypsin-ligand interactions” (J Med Chem, 1977).

Legend:
[1] = Inhibition of chymotrypsin (unknown origin); details: Homo sapiens
[2] = Binding affinity to chymotrypsin (unknown origin) assessed as acetylation at pH 7; details: Homo sapiens
[3] = Binding affinity to chymotrypsin (unknown origin) assessed as acetylation at pH 6; details: Homo sapiens
[4] = Binding affinity to chymotrypsin (unknown origin) assessed as deacetylation; details: Homo sapiens

Description for Homo sapiens: Inhibition of alpha-chymotrypsin (unknown origin)

## O=C(O)c1ccccc1
[1]
  log1/Ki: 1.99

## C1=CCCCC1
[1]
  log1/Ki: 2.07

## CC(C)(C)c1ccc(C(=O)O)cc1
[1]
  log1/Ki: 3.89

## O=[N+]([O-])c1ccccc1
Homo sapiens
  log1/Ki: 3.02

## O=C(O)CCc1ccccc1
[1]
  log1/Ki: 2.79

## COc1ccc(C(=O)Oc2ccc([N+](=O)[O-])cc2)cc1
[2]
  log K: 2.97
[3]
  log K: 2.78
[4]
  log K: -4.39

## Cc1ccc(C(=O)O)cc1
[1]
  log1/Ki: 2.43

## CCCCC
[1]
  log1/Ki: 2.25

## O=C(Oc1ccc([N+](=O)[O-])cc1)c1ccc(C(F)(F)F)cc1
[2]
  log K: 3.95
[3]
  log K: 3.41
[4]
  log K: -2.69

## CCc1ccccc1
Homo sapiens
  log1/Ki: 2.74

## c1ccc2cc3ccccc3cc2c1
Homo sapiens
  log1/Ki: 5.26

## O=C(Oc1ccc([N+](=O)[O-])cc1)c1ccccc1
[2]
  log K: 3.16
[3]
  log K: 2.64
[4]
  log K: -3.69

## O=C(Oc1ccc([N+](=O)[O-])cc1)c1cccc(F)c1
[2]
  log K: 3.6
[3]
  log K: 3.17
[4]
  log K: -0.35

## Cc1cccc(C(=O)O)c1
[1]
  log1/Ki: 2.42

## C1=Cc2ccccc2C1
[1]
  log1/Ki: 3.67

## Clc1ccccc1
Homo sapiens
  log1/Ki: 3.09

## Cc1ccccc1
Homo sapiens
  log1/Ki: 2.55

## O=C(O)CCCc1ccccc1
[1]
  log1/Ki: 3.22

## c1ccc2ccccc2c1
Homo sapiens
  log1/Ki: 3.93

## O=C(Oc1ccc([N+](=O)[O-])cc1)c1ccc(Cl)cc1
[2]
  log K: 3.56
[3]
  log K: 3.27
[4]
  log K: -3.48

## O=C(Oc1ccc([N+](=O)[O-])cc1)c1ccc([N+](=O)[O-])cc1
[2]
  log K: 3.96
[3]
  log K: 3.55
[4]
  log K: -3.44

## O=C(O)c1ccc2ccccc2c1
[1]
  log1/Ki: 3.86
